Test results reported in patent US10463644B2, “Uses of sesquiterpene lactone compounds and their derivatives in drugs preparation” (ACCENDATECH, priority 2013, dated 2019).
Read-outs that look alike come from different tables or passages of the source.

Experiments:
[1] = tested on: TNF-α secreted by synoviocyte; experiment: Content of TNF-α in culture supernatant of synoviocyte of RA model rats given test compound; format: in vivo; conditions: rat RA model, dose 30 mg/kg.2d; normal control 0.38 ± 0.027, NaCl 0.74 ± 0.098
Method in brief: (§1)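 Rat RA model: compounds given at 30 mg/kg.2d, with normal control and NaCl groups. Synoviocyte culture supernatants assayed for secreted TNF-α and PGE2 by one referenced method, IL-1β by another.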

[2] = tested on: IL-1β secreted by synoviocyte; experiment: Content of IL-1β in culture supernatant of synoviocyte of RA model rats given test compound; format: in vivo; conditions: rat RA model, dose 30 mg/kg.2d; normal control 0.16 ± 0.034, NaCl 0.49 ± 0.136
Method in brief: as §1

[3] = tested on: PGE2 secreted by synoviocyte; experiment: Content of PGE2 in culture supernatant of synoviocyte of RA model rats given test compound; format: in vivo; conditions: rat RA model, dose 30 mg/kg.2d; normal control 8.34 ± 1.29, NaCl 32.44 ± 10.32
Method in brief: as §1

cancer stem cells = experiment: Survival rate of cancer stem cells after test compound is added (flow cytometry, Annexin V-FITC/PI, clinical specimen); format: cell-based, patient; conditions: Homo sapiens, 18 h
Method in brief: (§2)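 Patient specimens (e.g. AML, CD34+/CD38+ stem-cell marker) separated on Ficoll; mononuclear cells at 1×10^6/mL in serum-free IMDM treated 18 h with compound. Cells stained for stem-cell markers, then Annexin V-FITC/PI, and apoptosis measured by flow cytometry within one hour.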

cancer cells = experiment: Survival rate of cancer cells after test compound is added (flow cytometry, Annexin V-FITC/PI, clinical specimen); format: cell-based, patient; conditions: Homo sapiens, 18 h, read-out: Survival rate (%) All cells (Stem cells and ordinary cells)
Method in brief: as §2

[4] = Head and neck squamous cell carcinomas

## CN(C)C[C@@H]1C(=O)O[C@H]2[C@H]1CCC1(CC1)[C@@H]1CCC3(CC3)[C@H]21 [Compound 35]
[1]
  Content of TNF-α in culture supernatant of synoviocyte (x ± s): 0.57 ± 0.057 ng/mL
[2]
  Content of IL-1β in culture supernatant of synoviocyte (x ± s): 0.41 ± 0.056 ng/mL
[3]
  Content of PGE2 in culture supernatant of synoviocyte (x ± s): 21.54 ± 1.32 ng/mL
Cancer stem cells; AML
  viability at 10 µM: 82%
  viability at 20 µM: 73%
Cancer stem cells; Brain glioma
  viability at 10 µM: 84%
  viability at 20 µM: 78%
Cancer stem cells; Brain tumor
  viability at 10 µM: 81%
  viability at 20 µM: 75%
Cancer stem cells; Breast cancer
  viability at 10 µM: 86%
  viability at 20 µM: 78%
Cancer stem cells; CLL
  viability at 10 µM: 81%
  viability at 20 µM: 75%
Cancer stem cells; CML
  viability at 10 µM: 84%
  viability at 20 µM: 78%
Cancer stem cells; Children hepatoblastoma
  viability at 10 µM: 87%
  viability at 20 µM: 76%
Cancer stem cells; Colon adenocarcinoma
  viability at 10 µM: 84%
  viability at 20 µM: 78%
Cancer stem cells; Colorectal cancer
  viability at 10 µM: 82%
  viability at 20 µM: 73%
Cancer stem cells; Gastric cancer
  viability at 10 µM: 85%
  viability at 20 µM: 77%
Cancer stem cells; Gastrointestinal tumor
  viability at 10 µM: 85%
  viability at 20 µM: 77%
Cancer stem cells; Glioma
  viability at 10 µM: 81%
  viability at 20 µM: 75%
Cancer stem cells; [4]
  viability at 10 µM: 82%
  viability at 20 µM: 73%
Cancer stem cells; Laryngeal cancer
  viability at 10 µM: 82%
  viability at 20 µM: 76%
Cancer stem cells; Liver cancer
  viability at 10 µM: 84%
  viability at 20 µM: 74%
Cancer stem cells; Lung adenocarcinoma
  viability at 10 µM: 82%
  viability at 20 µM: 73%
Cancer stem cells; Lung cancer
  viability at 10 µM: 84%
  viability at 20 µM: 78%
Cancer stem cells; Malignant melanoma
  viability at 10 µM: 87%
  viability at 20 µM: 75%
Cancer stem cells; Nasopharynx cancer
  viability at 10 µM: 86%
  viability at 20 µM: 78%
Cancer stem cells; Ovarian cancer
  viability at 10 µM: 84%
  viability at 20 µM: 78%
Cancer stem cells; Pancreatic cancer
  viability at 10 µM: 79%
  viability at 20 µM: 72%
Cancer stem cells; Prostate cancer
  viability at 10 µM: 85%
  viability at 20 µM: 79%
Cancer stem cells; Retinoblastoma
  viability at 10 µM: 88%
  viability at 20 µM: 81%
Cancer stem cells; Skin cancer
  viability at 10 µM: 85%
  viability at 20 µM: 77%
Cancer cells; AML
  viability at 10 µM: 91%
  viability at 20 µM: 87%
Cancer cells; Brain glioma
  viability at 10 µM: 92%
  viability at 20 µM: 87%
Cancer cells; Brain tumor
  viability at 10 µM: 87%
  viability at 20 µM: 83%
Cancer cells; Breast cancer
  viability at 10 µM: 93%
  viability at 20 µM: 92%
Cancer cells; CLL
  viability at 10 µM: 87%
  viability at 20 µM: 83%
Cancer cells; CML
  viability at 10 µM: 91%
  viability at 20 µM: 88%
Cancer cells; Children hepatoblastoma
  viability at 10 µM: 94%
  viability at 20 µM: 87%
Cancer cells; Colon adenocarcinoma
  viability at 10 µM: 91%
  viability at 20 µM: 88%
Cancer cells; Colorectal cancer
  viability at 10 µM: 91%
  viability at 20 µM: 87%
Cancer cells; Gastric cancer
  viability at 10 µM: 92%
  viability at 20 µM: 89%
Cancer cells; Gastrointestinal tumor
  viability at 10 µM: 92%
  viability at 20 µM: 89%
Cancer cells; Glioma
  viability at 10 µM: 87%
  viability at 20 µM: 83%
Cancer cells; [4]
  viability at 10 µM: 91%
  viability at 20 µM: 87%
Cancer cells; Laryngeal cancer
  viability at 10 µM: 89%
  viability at 20 µM: 86%
Cancer cells; Liver cancer
  viability at 10 µM: 89%
  viability at 20 µM: 86%
Cancer cells; Lung adenocarcinoma
  viability at 10 µM: 91%
  viability at 20 µM: 87%
Cancer cells; Lung cancer
  viability at 10 µM: 91%
  viability at 20 µM: 88%
Cancer cells; Malignant melanoma
  viability at 10 µM: 91%
  viability at 20 µM: 84%
Cancer cells; Nasopharynx cancer
  viability at 10 µM: 93%
  viability at 20 µM: 92%
Cancer cells; Ovarian cancer
  viability at 10 µM: 91%
  viability at 20 µM: 88%
Cancer cells; Pancreatic cancer
  viability at 10 µM: 88%
  viability at 20 µM: 81%
Cancer cells; Prostate cancer
  viability at 10 µM: 88%
  viability at 20 µM: 85%
Cancer cells; Retinoblastoma
  viability at 10 µM: 91%
  viability at 20 µM: 89%
Cancer cells; Skin cancer
  viability at 10 µM: 92%
  viability at 20 µM: 89%
